In BigSolDB 2.1:

NC(=O)Nc1ccccc1
solubility (mole fraction)
Conditions	283.15 K	288.15 K	293.15 K	298.15 K	303.15 K	308.15 K	313.15 K	318.15 K	323.15 K
in 1,2-dichloroethane	0.000433	0.000528	0.000706	0.000952	0.0012	0.00151	0.002	0.00257	0.00315
in 1,4-dioxane	–	0.0128	0.0152	0.0183	0.022	0.0276	0.0348	0.0433	0.0525
in DMF	0.205	0.212	0.22	0.229	0.24	0.253	0.266	0.282	0.3
in DMSO	–	–	0.192	0.199	0.207	0.217	0.229	0.244	0.262
in NMP	0.0457	0.0517	0.0596	0.0686	0.0787	0.0898	0.101	0.115	0.13
in acetonitrile	0.00622	0.00731	0.00867	0.0106	0.0135	0.0177	0.0221	0.0264	0.0318
in ethanol	0.0236	0.0272	0.0322	0.0383	0.0459	0.0525	0.0612	0.072	0.082
in ethyl acetate	0.0147	0.0176	0.0209	0.0257	0.0309	0.0384	0.0461	0.0549	0.0643
in ethylene glycol	0.0338	0.039	0.0448	0.0517	0.0595	0.0681	0.0774	0.0882	0.101
in isopropanol	0.00903	0.0108	0.0132	0.0164	0.0198	0.0253	0.0321	0.0392	0.0472
in methanol	0.0265	0.0305	0.036	0.0421	0.0495	0.0578	0.0672	0.0774	0.0888
in n-propanol	0.02	0.0235	0.0281	0.0334	0.0394	0.0458	0.0539	0.0629	0.0723
in water	0.000409	0.000513	0.000649	0.000828	0.00102	0.00124	0.0015	0.0018	0.00208
